# Legend:
# [1] = Stability in organic medium (dimethyl sulfoxide) by UV-Vis spectroscopy; format: physicochemical; details: for Relative variation of the maximum absorbance of the charge transfer bands: band 357-425 nm (λmax in column head); for Relative variation of the maximum absorbance of the π→π* transitions: band 289-300 nm (λmax in column head)
# Experimental: (§1) The stability of the complexes 4-11 in organic and aqueous media was evaluated over 24 h by UV-Vis spectroscopy at room temperature, in dark, on a Jasco V-660 spectrometer using quartz cuvettes (1 cm optical path length). The electronic spectra (270-900 nm) were acquired at regular periods of time (0 h, 0.25 h, 0.5 h, 0.75 h, 1 h, 2 h, 3 h, 4 h, 5 h, 6 h, 24 h) for solutions of 100% dimethyl sulfoxide (complexes 4-11) and 5% dimethyl sulfoxide/95% Dulbecco's Modified Eagle Medium (complexes 4, 5 and 8-11) or 10% dimethyl sulfoxide/90% Dulbecco's Modified Eagle Medium (complexes 6 and 7) at concentrations ranging from 7.0×10^-5 M to 3.0×10^-4 M.
# [2] = Stability in aqueous medium (dimethyl sulfoxide/Dulbecco's Modified Eagle Medium) by UV-Vis spectroscopy; format: physicochemical; details: for Relative variation of the maximum absorbance of the π→π* transitions: band 292-296 nm (λmax in column head); for Relative variation of the maximum absorbance of the charge transfer bands: band 358-400 nm (λmax in column head)
# Experimental: as §1
# [3] = 10% dimethyl sulfoxide/90% Dulbecco's Modified Eagle Medium, time 0 h
# [4] = 10% dimethyl sulfoxide/90% Dulbecco's Modified Eagle Medium, time 0.25 h
# [5] = 10% dimethyl sulfoxide/90% Dulbecco's Modified Eagle Medium, time 0.5 h
# [6] = 10% dimethyl sulfoxide/90% Dulbecco's Modified Eagle Medium, time 0.75 h
# [7] = 10% dimethyl sulfoxide/90% Dulbecco's Modified Eagle Medium, time 1 h
# [8] = 10% dimethyl sulfoxide/90% Dulbecco's Modified Eagle Medium, time 2 h
# [9] = 10% dimethyl sulfoxide/90% Dulbecco's Modified Eagle Medium, time 3 h
# [10] = 10% dimethyl sulfoxide/90% Dulbecco's Modified Eagle Medium, time 4 h
# [11] = 10% dimethyl sulfoxide/90% Dulbecco's Modified Eagle Medium, time 5 h
# [12] = 10% dimethyl sulfoxide/90% Dulbecco's Modified Eagle Medium, time 6 h
# [13] = 10% dimethyl sulfoxide/90% Dulbecco's Modified Eagle Medium, time 24 h
# [14] = 5% dimethyl sulfoxide/95% Dulbecco's Modified Eagle Medium, time 0 h
# [15] = 5% dimethyl sulfoxide/95% Dulbecco's Modified Eagle Medium, time 0.25 h
# [16] = 5% dimethyl sulfoxide/95% Dulbecco's Modified Eagle Medium, time 0.5 h
# [17] = 5% dimethyl sulfoxide/95% Dulbecco's Modified Eagle Medium, time 0.75 h
# [18] = 5% dimethyl sulfoxide/95% Dulbecco's Modified Eagle Medium, time 1 h
# [19] = 5% dimethyl sulfoxide/95% Dulbecco's Modified Eagle Medium, time 2 h
# [20] = 5% dimethyl sulfoxide/95% Dulbecco's Modified Eagle Medium, time 3 h
# [21] = 5% dimethyl sulfoxide/95% Dulbecco's Modified Eagle Medium, time 4 h
# [22] = 5% dimethyl sulfoxide/95% Dulbecco's Modified Eagle Medium, time 5 h
# [23] = 5% dimethyl sulfoxide/95% Dulbecco's Modified Eagle Medium, time 6 h
# [24] = 5% dimethyl sulfoxide/95% Dulbecco's Modified Eagle Medium, time 24 h
compound,measurement,setting,value
CC(=O)C1=C[CH]([Ru-]2([PH](c3ccccc3)(c3ccccc3)c3ccccc3)[n+]3cccc4c5nccnc5c5ccc[n+]2c5c43)C=C1.O=S(=O)([O-])C(F)(F)F (centres unmarked) [compound 7],Relative variation of the maximum absorbance of the charge transfer bands,[1]; time 0 h,0.0%
same,Relative variation of the maximum absorbance of the charge transfer bands,[1]; time 0.25 h,0.0%
same,Relative variation of the maximum absorbance of the charge transfer bands,[1]; time 0.5 h,−0.1%
same,Relative variation of the maximum absorbance of the charge transfer bands,[1]; time 0.75 h,−0.1%
same,Relative variation of the maximum absorbance of the charge transfer bands,[1]; time 1 h,−0.1%
same,Relative variation of the maximum absorbance of the charge transfer bands,[1]; time 2 h,−0.3%
same,Relative variation of the maximum absorbance of the charge transfer bands,[1]; time 3 h,−0.2%
same,Relative variation of the maximum absorbance of the charge transfer bands,[1]; time 4 h,−0.5%
same,Relative variation of the maximum absorbance of the charge transfer bands,[1]; time 5 h,−0.3%
same,Relative variation of the maximum absorbance of the charge transfer bands,[1]; time 6 h,−0.4%
same,Relative variation of the maximum absorbance of the charge transfer bands,[1]; time 24 h,−0.3%
same,Relative variation of the maximum absorbance of the π→π* transitions,[2]; [3],0.0%
same,Relative variation of the maximum absorbance of the charge transfer bands,[2]; [3],0.0%
same,Relative variation of the maximum absorbance of the π→π* transitions,[2]; [4],0.0%
same,Relative variation of the maximum absorbance of the charge transfer bands,[2]; [4],0.3%
same,Relative variation of the maximum absorbance of the π→π* transitions,[2]; [5],0.1%
same,Relative variation of the maximum absorbance of the charge transfer bands,[2]; [5],0.4%
same,Relative variation of the maximum absorbance of the π→π* transitions,[2]; [6],0.3%
same,Relative variation of the maximum absorbance of the charge transfer bands,[2]; [6],0.6%
same,Relative variation of the maximum absorbance of the π→π* transitions,[2]; [7],0.1%
same,Relative variation of the maximum absorbance of the charge transfer bands,[2]; [7],0.5%
same,Relative variation of the maximum absorbance of the π→π* transitions,[2]; [8],0.1%
same,Relative variation of the maximum absorbance of the charge transfer bands,[2]; [8],0.5%
same,Relative variation of the maximum absorbance of the π→π* transitions,[2]; [9],0.0%
same,Relative variation of the maximum absorbance of the charge transfer bands,[2]; [9],0.4%
same,Relative variation of the maximum absorbance of the π→π* transitions,[2]; [10],−0.3%
same,Relative variation of the maximum absorbance of the charge transfer bands,[2]; [10],0.5%
same,Relative variation of the maximum absorbance of the π→π* transitions,[2]; [11],−0.2%
same,Relative variation of the maximum absorbance of the charge transfer bands,[2]; [11],0.5%
same,Relative variation of the maximum absorbance of the π→π* transitions,[2]; [12],0.0%
same,Relative variation of the maximum absorbance of the charge transfer bands,[2]; [12],0.4%
same,Relative variation of the maximum absorbance of the π→π* transitions,[2]; [13],0.3%
same,Relative variation of the maximum absorbance of the charge transfer bands,[2]; [13],1.3%
COc1cc[n+]2c(c1)-c1cc(O)cc[n+]1[Ru-]2([CH]1C=CC=C1)[PH](c1ccccc1)(c1ccccc1)c1ccccc1.O=S(=O)([O-])C(F)(F)F (centres unmarked) [compound 10],Relative variation of the maximum absorbance of the π→π* transitions,[1]; time 0 h,0.0%
same,Relative variation of the maximum absorbance of the charge transfer bands,[1]; time 0 h,0.0%
same,Relative variation of the maximum absorbance of the π→π* transitions,[1]; time 0.25 h,0.0%
same,Relative variation of the maximum absorbance of the charge transfer bands,[1]; time 0.25 h,0.0%
same,Relative variation of the maximum absorbance of the π→π* transitions,[1]; time 0.5 h,0.0%
same,Relative variation of the maximum absorbance of the charge transfer bands,[1]; time 0.5 h,−0.2%
same,Relative variation of the maximum absorbance of the π→π* transitions,[1]; time 0.75 h,−0.1%
same,Relative variation of the maximum absorbance of the charge transfer bands,[1]; time 0.75 h,−0.3%
same,Relative variation of the maximum absorbance of the π→π* transitions,[1]; time 1 h,0.9%
same,Relative variation of the maximum absorbance of the charge transfer bands,[1]; time 1 h,0.7%
same,Relative variation of the maximum absorbance of the π→π* transitions,[1]; time 2 h,1.5%
same,Relative variation of the maximum absorbance of the charge transfer bands,[1]; time 2 h,1.5%
same,Relative variation of the maximum absorbance of the π→π* transitions,[1]; time 3 h,2.5%
same,Relative variation of the maximum absorbance of the charge transfer bands,[1]; time 3 h,2.5%
same,Relative variation of the maximum absorbance of the π→π* transitions,[1]; time 4 h,3.0%
same,Relative variation of the maximum absorbance of the charge transfer bands,[1]; time 4 h,3.1%
same,Relative variation of the maximum absorbance of the π→π* transitions,[1]; time 5 h,3.0%
same,Relative variation of the maximum absorbance of the charge transfer bands,[1]; time 5 h,3.2%
same,Relative variation of the maximum absorbance of the π→π* transitions,[1]; time 6 h,2.8%
same,Relative variation of the maximum absorbance of the charge transfer bands,[1]; time 6 h,3.1%
same,Relative variation of the maximum absorbance of the π→π* transitions,[1]; time 24 h,3.3%
same,Relative variation of the maximum absorbance of the charge transfer bands,[1]; time 24 h,4.2%
same,Relative variation of the maximum absorbance of the π→π* transitions,[2]; [14],0.0%
same,Relative variation of the maximum absorbance of the charge transfer bands,[2]; [14],0.0%
same,Relative variation of the maximum absorbance of the π→π* transitions,[2]; [15],0.0%
same,Relative variation of the maximum absorbance of the charge transfer bands,[2]; [15],−0.8%
same,Relative variation of the maximum absorbance of the π→π* transitions,[2]; [16],−1.7%
same,Relative variation of the maximum absorbance of the charge transfer bands,[2]; [16],−0.7%
same,Relative variation of the maximum absorbance of the π→π* transitions,[2]; [17],−1.9%
same,Relative variation of the maximum absorbance of the charge transfer bands,[2]; [17],−1.0%
same,Relative variation of the maximum absorbance of the π→π* transitions,[2]; [18],−2.2%
same,Relative variation of the maximum absorbance of the charge transfer bands,[2]; [18],−1.3%
same,Relative variation of the maximum absorbance of the π→π* transitions,[2]; [19],−3.1%
same,Relative variation of the maximum absorbance of the charge transfer bands,[2]; [19],−2.3%
same,Relative variation of the maximum absorbance of the π→π* transitions,[2]; [20],−4.1%
same,Relative variation of the maximum absorbance of the charge transfer bands,[2]; [20],−3.1%
same,Relative variation of the maximum absorbance of the π→π* transitions,[2]; [21],−5.1%
same,Relative variation of the maximum absorbance of the charge transfer bands,[2]; [21],−3.6%
same,Relative variation of the maximum absorbance of the π→π* transitions,[2]; [22],−5.6%
same,Relative variation of the maximum absorbance of the charge transfer bands,[2]; [22],−4.3%
same,Relative variation of the maximum absorbance of the π→π* transitions,[2]; [23],−6.0%
same,Relative variation of the maximum absorbance of the charge transfer bands,[2]; [23],−4.8%
same,Relative variation of the maximum absorbance of the π→π* transitions,[2]; [24],−7.0%
same,Relative variation of the maximum absorbance of the charge transfer bands,[2]; [24],−5.0%

# Reference: patent publication US20250195463A1, “ORGANOMETALLIC COMPLEX, CONTROLLED-RELEASE MULTI-FUNCTIONAL DRUG, PHARMACEUTICAL COMPOSITION, PROCESSES FOR THE PREPARATION THEREOF AND THEIR USE” (FACULDADE DE CIÊNCIAS DA UNIVERSIDADE DE LISBOA, priority 2022, published 2025)
